We go through 25 compounds from patent publication US12466817B2, “Pyridine derivative and application thereof” (Nicoya Therapeutics (Shanghai) Co., Ltd, priority 2020, dated 2025).

What is called IC50 is the midpoint of a concentration-inhibition curve. Usually half-life stands for how long it takes for the measured level to halve. A lower half-life goes with fast loss. The term clearance denotes the volume of plasma or blood freed of the substance per unit of time. Broadly, the bioavailability is dose-corrected exposure relative to a reference, in per cent. Lower therefore signals poor availability.

In data set [1] the target is T1, CYP3A4 (Homo sapiens, UniProt P08684).
T1 construct: from tissue; host or cells: human liver microsomes
T1 sequence (P08684 whole entry): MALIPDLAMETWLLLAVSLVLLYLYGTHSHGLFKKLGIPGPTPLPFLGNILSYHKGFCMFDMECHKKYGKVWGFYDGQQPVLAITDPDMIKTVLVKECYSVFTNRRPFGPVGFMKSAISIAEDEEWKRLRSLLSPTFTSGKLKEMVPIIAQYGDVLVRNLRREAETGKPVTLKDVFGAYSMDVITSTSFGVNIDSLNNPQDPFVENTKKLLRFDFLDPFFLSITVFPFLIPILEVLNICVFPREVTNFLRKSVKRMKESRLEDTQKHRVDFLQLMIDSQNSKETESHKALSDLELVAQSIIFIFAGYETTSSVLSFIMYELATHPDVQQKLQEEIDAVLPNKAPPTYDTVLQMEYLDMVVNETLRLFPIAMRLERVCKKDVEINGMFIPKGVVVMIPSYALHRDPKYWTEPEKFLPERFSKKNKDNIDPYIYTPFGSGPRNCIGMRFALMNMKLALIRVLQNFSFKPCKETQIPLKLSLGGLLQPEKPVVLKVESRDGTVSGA
The data set can be described thus: Inhibition of human liver microsomal CYP3A4 activity. The conditions noted are these: human liver microsomes, conclusion. It is filed as in vitro ADME. As for the experimental part:
A total of five specific probe substrates for the five isozymes of CYP, phenacetin (CYP1A2), diclofenac (CYP2C9), (S′)-mephenytoin (CYP2C19), dextromethorphan ([…]), and midazolam (CYP3A4), were incubated respectively with human liver microsomes and the test compounds, and the reaction was initiated by the addition of reduced nicotinamide adenine dinucleotide phosphate (NADPH), and the samples were treated and the concentrations of the five metabolites produced by the specific substrates, acetaminophen, 4′-hydroxydiclofenac, 4′-hydroxymephenytoin, dextrorphan and 1′-hydroxymidazolam were measured by liquid chromatography tandem mass spectrometry (LC-MS/MS) after the end of the reaction, and the corresponding half maximal inhibitory concentrations (IC50) were calculated.
(In general: Liver microsomes are a subcellular fraction often used to study metabolism.)

In data set [2] the target is T2, CCR5 (Homo sapiens, UniProt P51681).
T2 construct: expressed in transfected cells; host or cells: HEK293, clone C13, passage P4
T2 sequence (P51681 whole entry, species assumed): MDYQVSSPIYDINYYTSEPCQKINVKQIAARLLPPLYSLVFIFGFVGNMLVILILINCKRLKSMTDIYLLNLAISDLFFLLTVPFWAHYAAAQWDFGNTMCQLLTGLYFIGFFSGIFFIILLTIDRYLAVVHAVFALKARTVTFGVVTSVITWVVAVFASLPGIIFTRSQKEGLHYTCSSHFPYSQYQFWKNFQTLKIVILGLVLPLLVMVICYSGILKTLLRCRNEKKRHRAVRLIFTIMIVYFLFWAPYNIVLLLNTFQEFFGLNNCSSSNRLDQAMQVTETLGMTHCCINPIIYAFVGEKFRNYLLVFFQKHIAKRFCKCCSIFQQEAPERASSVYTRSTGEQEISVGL
As to the kind of experiment: CCR5 FLIPR Calcium assay (intracellular calcium signaling). It is filed as cell-based. The conditions noted are these: HEK293 host cells, clone C13; agonist RANTES; Fluo-4 calcium signal. As for the experimental part:
(§1) The inhibitory effects of the compounds on CCR2 and CCR5 receptors were evaluated by detecting intracellular calcium signaling changes by FLIPR Calcium assay, using the IC50 values of the compounds as indicators.
(§2) 1. Cell lines: The cells were seeded and incubated overnight at 37° C. in a 5% CO2 incubator CCR2/CCR5 density: 1 M (20 k/well)
(§3) 2. Reagent: Fluo-4 Direct, (Invitrogen, Cat #F10471)
(§4) The compound was prepared by dissolving in DMSO to a 10 mM solution, and the compound solution was placed in a nitrogen chamber.
(§5) Preparation of probenecid in FLIPR assay buffer: 1 mL of FLIPR assay buffer was added to 77 mg of probenecid to make a 250 mM solution. The solution was prepared every day to keep fresh.
(§6) 2× (8 μM) Fluo-4 Direct™ loading buffer (10 mL of each)
(§7) 0.2 mL of probenecid was added to each 10 mL of Fluo-Direct. The final measured concentration was 2.5 mM MCP-1 was diluted in FLIPR assay buffer 1:2 for 10 spots, starting at 0.5 μM (eventually to […]). RANTES was diluted in FLIPR assay buffer 1:3 for 10 spots, starting at 0.5 μM (eventually to […]). 20 μL of serially diluted compound buffer was added to each well of the DRC plate.
(§8) The standard compound was diluted in DMSO 1:3 for 11 points, starting at 1 mM.
(§9) The test compound was diluted in DMSO 1:3 for 11 spots, starting at 2 mM. 250 nL of compound solution was transferred to cell plates using Echo (Greiner #781946) c) The cell plate was taken from the incubator and 20 μL of 2× Fluo-4 Direct no wash loading buffer was gently dispensed into a 384-well cell culture plate using a pipette. The volume in the final cell plate was 40 μL […]
(§10) d) Incubation was conducted at 37° C. 5% CO2 for 50 minutes, at room temperature for 10 minutes e) The cell plate was taken from the incubator and placed in the FLIPR. The composite plate and pipette tip box were placed in the FLIPR
(§11) 5) The “Max-Min” was calculated from Read 90 to the maximum allowed. EC80 values for each cell line were calculated using FLIPR
(§12) 6) Agonist reference compound at 5 times EC80 concentration was prepared 2) 10 μL of agonist reference compound at 5 times EC80 concentration was transferred from the composite plate to the cell plate.
(§13) 3) Fluorescence signals were read.
(§14) 4) The “Max-Min” was calculated from Read 90 to the maximum allowed h) Data was analyzed by using Prism, the IC50 values of the compounds were calculated.
On the technique in general: Calcium flux is commonly read through the fluorescence of an indicator in the cells.

For data set [3], the target named is T3, CCR2 (Homo sapiens, UniProt P41597).
T3 construct: expressed in transfected cells; host or cells: HEK293, clone C7, passage P6
T3 sequence (P41597 whole entry, species assumed): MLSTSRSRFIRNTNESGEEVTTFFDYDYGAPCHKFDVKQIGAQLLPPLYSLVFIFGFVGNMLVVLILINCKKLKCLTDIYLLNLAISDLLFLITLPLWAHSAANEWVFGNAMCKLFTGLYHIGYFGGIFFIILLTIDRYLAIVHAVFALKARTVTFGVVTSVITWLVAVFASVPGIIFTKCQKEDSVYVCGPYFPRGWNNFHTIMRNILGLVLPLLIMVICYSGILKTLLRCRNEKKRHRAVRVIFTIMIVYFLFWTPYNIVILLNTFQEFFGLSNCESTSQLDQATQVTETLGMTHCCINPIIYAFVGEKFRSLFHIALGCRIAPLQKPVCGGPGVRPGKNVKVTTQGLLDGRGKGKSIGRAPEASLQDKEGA
The data set can be described thus: CCR2 FLIPR Calcium assay (intracellular calcium signaling). Type of data set: cell-based. Conditions: HEK293 host cells, clone C7; agonist MCP-1; Fluo-4 calcium signal. As for the experimental part: as §1, §2, §3, §4, §5, §6, §7, §8, §9, §10, §11, §12, §13, §14

The nature of data set [4]: Comparative pharmacokinetic test in mice. Conditions: mice. It is filed as in vivo, C57BL/6 male mice. As for the experimental part:
C57BL/6 male mice were used as test animals in the present study, and the plasma drug concentrations of the test compound WX009 and the reference compound in mice by intravenous administration or oral administration were quantified by LC/MS/MS method at different time points respectively to evaluate the pharmacokinetic characteristics of the two test drugs in mice.
A clarified solution of the test compound was injected via tail vein into C57BL/6 mice (overnight fasting, 7-10 weeks old), and the test compound was given by gavage into C57BL/6 mice (overnight fasting, 7-10 weeks old). Approximately 30 μL of blood was collected from the jugular or tail vein at 0.0833, 0.25, 0.5, 1, 2, 4, 6, 8, and 24 hours after administration, and placed in anticoagulation tubes added with EDTA-K2, then centrifuged at 4° C. for 15 minutes at 3000 g to give the plasma. Plasma drug concentration was determined by LC-MS/MS, and relevant pharmacokinetic parameters were calculated using WinNonlin™ Version 6.3 (Pharsight, Mountain View, CA) pharmacokinetic software with a non-compartmental model linear logarithmic trapezoidal method.

For the compound “Cenicriviroc [(Cenicriviroc), reference compound]”, the “Inhibition of CYP3A4 (in words)” value is on record as “strong inhibitory effect” in data set [1] (listed as reference compound) and “strong inhibition” in data set [1] (listed as reference compounds).

For `CCCCOCCOc1ccc(-c2ccc3c(c2)/C=C(/C(=O)Nc2ccc([S+]([O-])Cc4cnc(C)cc4C)cc2)CCCN3CC2CCCO2)cc1` (single isomer, unassigned) [WX023], the IC50 in data set [2] was found to be 0.00971 µM.

On to `CCCCOCCOc1ccc(-c2ccc3c(c2)C=C(C(=O)Nc2ccc([S+]([O-])Cc4c(C)ccnc4C)cc2)CCCN3CC2CCOCC2)cc1` (single isomer, unassigned) [WX018], for which the 50% inhibitory concentration (IC50) in data set [2] was found to be 0.0152 µM.

In the case of `CCCCOCCOc1ccc(-c2ccc3c(c2)/C=C(/C(=O)Nc2ccc([S+]([O-])Cc4cnc(C)cc4C)cc2)CCCN3CC2CCCO2)cc1` (single isomer, unassigned) [WX024], the half-inhibitory concentration (IC50) in data set [2] stood at 0.0113 µM.

Consider `CCCCOCCOc1ccc(-c2ccc3c(c2)/C=C(/C(=O)Nc2ccc([S@+]([O-])Cc4c(CC)ccnc4CC)cc2)CCCN3CC2CCOCC2)cc1` [WX025], for which the half-maximal inhibitory concentration (IC50) in data set [3] came out at 0.00226 µM; in data set [2], 0.00426 µM.

For the compound `CCCCOCCOc1ccc(-c2ccc3c(c2)/C=C(/C(=O)Nc2ccc([S@+]([O-])Cc4c(CC)ccnc4C)cc2)CCCN3C[C@H]2CCCO2)cc1` (single isomer, unassigned) [WX011], the 50% inhibitory concentration (IC50) worked out at 0.00115 µM in data set [3] and 0.00379 µM in data set [2].

In the case of `CCCCOCCOc1ccc(-c2ccc3c(c2)C=C(C(=O)Nc2ccc([S+]([O-])Cc4c(C)ccnc4C)cc2)CCCN3CC2CCOCC2)cc1` (single isomer, unassigned) [WX019], the half-inhibitory concentration (IC50) in data set [2] amounted to 0.0039 µM.

`CCCCOCCOc1ccc(-c2ccc3c(c2)/C=C(/C(=O)Nc2ccc([S@@+]([O-])Cc4cncn4CCC)cc2)CCCN3CC(C)C)cc1` [(Cenicriviroc), Cenicriviroc, reference compound]: the half-life in data set [4] (male, C57BL/6, mouse, plasma, intravenous injection 2 mg/kg) is 3.55 h. Further, the clearance in data set [4] (male, C57BL/6, mouse, plasma, intravenous injection 2 mg/kg, read-out: Plasma clearance rate) worked out at 2.28 mL/min/kg. In addition, in data set [4] (male, C57BL/6, mouse, plasma, oral 10 mg/kg), the bioavailability was 6.02%. In data set [4] (oral 10 mg/kg), the “Area under the time-concentration curve (0-inf)” value is 6.401 µM·h, the Peak concentration turned out to be 1533 nM and the Peak time amounted to 1.0 h.

For the compound `CCCCOCCOc1ccc(-c2ccc3c(c2)C=C(C(=O)Nc2ccc([S+]([O-])Cc4c(CC)ccnc4C)cc2)CCCN3CC2CCOCC2)cc1` (single isomer, unassigned) [WX006], the IC50 in data set [3] amounted to 0.0159 µM.

Regarding `CCCCOCCOc1ccc(-c2ccc3c(c2)C=C(C(=O)Nc2ccc([S+]([O-])Cc4c(CC)ccnc4C)cc2)CCCN3CC2CCCO2)cc1` (single isomer, unassigned) [WX008], the half-maximal inhibitory concentration (IC50) in data set [3] worked out at 0.0152 µM.

On to `CCCCOCCOc1ccc(-c2ccc3c(c2)/C=C(/C(=O)Nc2ccc([S@+]([O-])Cc4c(CC)ccnc4C)cc2)CCCN3C[C@H]2CCCO2)cc1` (single isomer, unassigned) [WX010], for which the IC50 in data set [3] was 0.0137 µM.

On to `CCCCOCCOc1ccc(-c2ccc3c(c2)/C=C(/C(=O)Nc2ccc([S+]([O-])Cc4c(C)ccnc4C)cc2)CCCN3CC2CCCO2)cc1` (single isomer, unassigned) [WX021], for which the IC50 in data set [2] was 0.00589 µM.

Regarding `CCCCOCCOc1ccc(-c2ccc3c(c2)C=C(C(=O)Nc2ccc([S+]([O-])Cc4cnc(C)cc4CC)cc2)CCCN3CC2CCCO2)cc1` (single isomer, unassigned) [WX014], the results for the IC50 in data set [3] and in data set [2] were 0.00139 µM and 0.0121 µM, respectively.

Turning to `CCCCOCCOc1ccc(-c2ccc3c(c2)/C=C(/C(=O)Nc2ccc([S@@+]([O-])Cc4cncn4CCC)cc2)CCCN3CC2CC2)cc1` [Reference A, reference compound], the “Inhibition of CYP3A4 (in words)” value in data set [1] is “strong inhibition”.

Regarding `CCCCOCCOc1ccc(-c2ccc3c(c2)C=C(C(=O)Nc2ccc([S+]([O-])Cc4cnccc4CC)cc2)CCCN3CC2CCCO2)cc1` (single isomer, unassigned) [WX005], the 50% inhibitory concentration (IC50) in data set [3] came to 0.0209 µM; in data set [2], 0.0089 µM.

In the case of `CCCCOCCOc1ccc(-c2ccc3c(c2)/C=C(/C(=O)Nc2ccc([S@+]([O-])Cc4cnc(C)cc4CC)cc2)CCCN3C[C@H]2CCCO2)cc1` (single isomer, unassigned) [WX016], the IC50 amounted to 0.00175 µM in data set [3] and 0.0164 µM in data set [2].

For the compound `CCCCOCCOc1ccc(-c2ccc3c(c2)/C=C(/C(=O)Nc2ccc([S+]([O-])Cc4c(C)ccnc4C)cc2)CCCN3CC2CCCO2)cc1` (single isomer, unassigned) [WX020], the IC50 in data set [2] was 0.00561 µM.

As for `CCCCOCCOc1ccc(-c2ccc3c(c2)C=C(C(=O)Nc2ccc([S+]([O-])Cc4cnccc4CC)cc2)CCCN3CC2CCCO2)cc1` (single isomer, unassigned) [WX004], the half-maximal inhibitory concentration (IC50) in data set [3] was determined as 0.0194 µM; in data set [2], 0.00647 µM.

Regarding `CCCCOCCOc1ccc(-c2ccc3c(c2)C=C(C(=O)Nc2ccc([S+]([O-])Cc4cnccc4CC)cc2)CCCN3CC2COCCO2)cc1` (single isomer, unassigned) [WX003], the IC50 in data set [3] was 0.0165 µM; in data set [2], 0.0117 µM.

Turning to `CCCCOCCOc1ccc(-c2ccc3c(c2)C=C(C(=O)Nc2ccc([S+]([O-])Cc4cnc(C)cc4CC)cc2)CCCN3CC2CCOCC2)cc1` (single isomer, unassigned) [WX013], the IC50 in data set [3] came out at 0.0199 µM.

`CCCCOCCOc1ccc(-c2ccc3c(c2)/C=C(/C(=O)Nc2ccc([S+]([O-])Cc4cnc(C)cc4C)cc2)CCCN3CC2CCOCC2)cc1` (stereo not shown) [WX022]: the concentration for half-maximal inhibition (IC50) in data set [2] amounted to 0.0136 µM.

As for `CCCCOCCOc1ccc(-c2ccc3c(c2)C=C(C(=O)Nc2ccc([S+]([O-])Cc4cnccc4CC)cc2)CCCN3CC2COCCO2)cc1` (single isomer, unassigned) [WX002], the IC50 stood at 0.0195 µM in data set [3] and 0.00747 µM in data set [2].

`CCCCOCCOc1ccc(-c2ccc3c(c2)/C=C(/C(=O)Nc2ccc([S+]([O-])Cc4cnccc4CC)cc2)CCCN3CC2CCOCC2)cc1` (stereo not shown) [WX001]: the IC50 came to 0.0176 µM in data set [3] and 0.00436 µM in data set [2].

With `CCCCOCCOc1ccc(-c2ccc3c(c2)C=C(C(=O)Nc2ccc([S+]([O-])Cc4cnc(C)cc4CC)cc2)CCCN3CC2CCCO2)cc1` (single isomer, unassigned) [WX015], in data set [3], the IC50 is 0.0214 µM.

For `CCCCOCCOc1ccc(-c2ccc3c(c2)/C=C(/C(=O)Nc2ccc([S@+]([O-])Cc4cnc(C)cc4CC)cc2)CCCN3C[C@H]2CCCO2)cc1` (single isomer, unassigned) [WX017], the IC50 in data set [3] came to 0.034 µM.
